Reference: patent US10966955B2, “Ocular drug delivery system and uses thereof” (Chang Gung University, priority 2020, dated 2021)

Key:
[1] = In vitro drug release of the ocular drug delivery system in sPLA2 solution (HPLC); format: physicochemical
Description: A suitable amount of the ocular drug delivery system obtained in Example 1 was immersed in 1 mL of a sPLA2 solution (containing 0.1 mg/mL sPLA2), followed by incubation at 37° C. with reciprocal shaking (100 rpm) in a thermostatically controlled water bath for a designated time period ranging from 0 minutes to 168 hours. Sample solutions were taken at each time point of 0, 1, 2, 3, 4, 5, 12, 24, 48, 72, 96, 120, 144, and 168 hours. The sample solutions thus obtained were centrifuged at 1000 rpm for 3 minutes. The resultant supernatants were collected and then subjected to high performance liquid chromatography (HPLC) analysis using a L-2400 UV detector, a L-2130 pump (Hitachi, Tokyo, Japan), and a Mightysil RP-18 column (Kanto Chemical, Tokyo, Japan). The HPLC operating conditions applied were described as follows. The mobile phase was 90% water with 0.1% trifluroacetic acid and 10% acetonitrile, and the flow rate of the mobile phase was 1 mL/min. The injection volume was 10 μL. The elution peak was detected by measuring absorbance at 280 nm (for EGCG), 305 nm (for β-1,3 glucan), and 274 nm (for SB-431542), respectively. The amount of EGCG released from the sPLA2 hydrolysable liposomes was calculated with reference to a standard calibration curve of EGCG. Results from five independent measurements were averaged and further used to calculate the cumulative released amount of EGCG.

[2] = In vitro drug release of the ocular drug delivery system in hyaluronidase solution (HPLC); format: physicochemical; conditions: for release rate compared with the other drugs (in words): hyaluronidase solution, EGCG in sPLA2 solution
Description: A suitable amount of the ocular drug delivery system obtained in Example 1 was immersed in 1 mL of a sPLA2 solution (containing 0.1 mg/mL sPLA2), followed by incubation at 37° C. with reciprocal shaking (100 rpm) in a thermostatically controlled water bath for a designated time period ranging from 0 minutes to 168 hours. Sample solutions were taken at each time point of 0, 1, 2, 3, 4, 5, 12, 24, 48, 72, 96, 120, 144, and 168 hours.
The sample solutions thus obtained were centrifuged at 1000 rpm for 3 minutes. The resultant supernatants were collected and then subjected to high performance liquid chromatography (HPLC) analysis using a L-2400 UV detector, a L-2130 pump (Hitachi, Tokyo, Japan), and a Mightysil RP-18 column (Kanto Chemical, Tokyo, Japan).
The HPLC operating conditions applied were described as follows. The mobile phase was 90% water with 0.1% trifluroacetic acid and 10% acetonitrile, and the flow rate of the mobile phase was 1 mL/min. The injection volume was 10 μL. The elution peak was detected by measuring absorbance at 280 nm (for EGCG), 305 nm (for β-1,3 glucan), and 274 nm (for SB-431542), respectively.
The release profile of β-1,3-glucan from the first HA-SH nanoparticles and the release profile of SB-431542 from the second HA-SH nanoparticles were evaluated substantially according to the procedures as described above, except that the ocular drug delivery system was immersed in 1 mL of a hyaluronidase solution (containing 100 U/mL hyaluronidase).

SIRC cells = test: Cell migration assay of SIRC cells; format: cell-based, rabbit; conditions: cell-free gap about 180 μm, 18 hours
Description: (b) Rabbit corneal epithelial (SIRC) cells (BCRC NO: 60093) were obtained from the Bioresources Collection and Research Center (BCRC) of Food Industry Research and Development Institute (FIRDI) (Hsinchu, Taiwan). The SIRC cells were grown in a regular growth medium containing minimum essential medium (MEM) and 10% fetal bovine serum (FBS), and were cultivated in a humidified atmosphere (5% CO2, 37° C.).
A cell culture insert was placed into each well of a 12-well culture plate. The SIRC cells were seeded into the culture tanks on both sides of the culture insert at a cell number of 1×10^4 cells and then incubated overnight to allow cell attachment. Thereafter, the culture insert was removed to create a cell-free gap with a width of about 180 μm, and then the liquid in each well was removed. Each well was washed three times with phosphate-buffered saline (PBS), followed by addition of 200 μL of Eagle's minimum essential medium (MEM). […]
At 0 and 18 hours after incubation, the cell migration profile of the SIRC cells in each group was photographed using an inverted phase contrast microscope (Nikon, Melville, N.Y., USA), and the width of the cell-free gap was measured by ImageJ software. The cell migration rate (%) was calculated using the following Equation (I): Cell migration rate (%)=[A−B)/A]×100 (I) […]

Row | Compound | release of EGCG (in words) ([1]; within 8 hours following initiation of the release test, sPLA2 solution) | cumulative release rate of EGCG from the sPLA2 hydrolysable liposomes ([1]; within 20 hours, 0.1 mg/mL sPLA2 solution, 37° C.) [%] | cumulative release rate of SB-431542 from the second HA-SH nanoparticles ([2]; at the 160th hour after initiation of the release test, 100 U/mL hyaluronidase solution, 37° C.) [%] | release rate compared with the other drugs (in words) [2] | cumulative release rate of β-1,3 glucan from the first HA-SH nanoparticles ([2]; within 70 hours after initiation of the release test, 100 U/mL hyaluronidase solution, 37° C.) [%] | Cell migration rate (%) (SIRC cells)
1 | O=C(O[C@@H]1Cc2c(O)cc(O)cc2O[C@@H]1c1cc(O)c(O)c(O)c1)c1cc(O)c(O)c(O)c1 [EGCG, epigallocatechin gallate] | released in a large amount | 90 | – | – | – | –
2 | NC(=O)c1ccc(-c2nc(-c3ccc4c(c3)OCO4)c(-c3ccccn3)[nH]2)cc1 [SB-431542] | – | – | 80 | slower than those of EGCG and β-1,3 glucan | – | –
3 | β-1,3-glucan [β-1,3 glucan] | – | – | – | slower than that of EGCG | 90 | 73
